Data as given in the NIST ThermoML archive (doi:10.1021/je500380x).

Assay: mn = molality of the nth substance listed, in mol/kg
Details: 100 kPa, Liquid; for electrical conductivity: Alternating current cell with electrodes; for viscosity: Falling or rolling sphere viscometry; for mass density: Vibrating tube method

CCC(=O)OCCN1CCNCC1 [2-(piperazin-1-yl)ethyl propionate] + CCO
Details	electrical conductivity [S/m]	mass density [kg/m3]	viscosity [mPa·s]
293.15 K, m1 = 0.05	0.018	792.31	1.231
293.15 K, m1 = 0.1	0.0284	795.01	1.291
293.15 K, m1 = 0.1985	0.0443	800.36	1.369
293.15 K, m1 = 0.3005	0.0571	806.02	1.473
293.15 K, m1 = 0.4001	0.0671	811.4	1.577
293.15 K, m1 = 0.5007	0.0769	817.08	1.711
293.15 K, m1 = 0.5998	0.0851	822.5	1.845
293.15 K, m1 = 0.7002	0.092	828.2	2
293.15 K, m1 = 0.8	0.0988	833.89	2.198
293.15 K, m1 = 0.8957	0.1048	839.61	2.363
293.15 K, m1 = 1	0.1105	845.48	2.582
293.15 K, m1 = 1.198	0.119	857.06	3.081
293.15 K, m1 = 1.401	0.126	869.49	3.774
293.15 K, m1 = 1.602	0.13	881.43	4.697
293.15 K, m1 = 1.8	0.1314	893.69	5.93
293.15 K, m1 = 2.001	0.1308	906.93	7.934
293.15 K, m1 = 2.198	0.127	918.83	9.733
293.15 K, m1 = 2.397	0.121	931.94	12.86
293.15 K, m1 = 2.597	0.1137	945.08	18.8
293.15 K, m1 = 2.796	0.106	958.17	25.23
293.15 K, m1 = 3.006	0.0951	972.39	37.45
298.15 K, m1 = 0.05	0.0186	788.01	1.12
298.15 K, m1 = 0.1	0.0296	790.73	1.173
298.15 K, m1 = 0.1985	0.0465	796.08	1.241
298.15 K, m1 = 0.3005	0.06	801.71	1.333
298.15 K, m1 = 0.4001	0.071	807.14	1.424
298.15 K, m1 = 0.5007	0.0816	812.78	1.541
298.15 K, m1 = 0.5998	0.0904	818.26	1.658
298.15 K, m1 = 0.7002	0.0977	823.96	1.793
298.15 K, m1 = 0.8	0.106	829.67	1.967
298.15 K, m1 = 0.8957	0.1123	835.39	2.11
298.15 K, m1 = 1	0.119	841.3	2.298
298.15 K, m1 = 1.198	0.129	852.92	2.729
298.15 K, m1 = 1.401	0.137	865.42	3.319
298.15 K, m1 = 1.602	0.1415	877.35	4.106
298.15 K, m1 = 1.8	0.1443	889.66	5.146
298.15 K, m1 = 2.001	0.1447	902.95	6.811
298.15 K, m1 = 2.198	0.1423	914.88	8.295
298.15 K, m1 = 2.397	0.138	928.01	10.83
298.15 K, m1 = 2.597	0.1304	941.19	15.64
298.15 K, m1 = 2.796	0.1237	954.36	20.7
298.15 K, m1 = 3.006	0.1136	968.58	30.28
303.15 K, m1 = 0.05	0.0191	783.69	1.021
303.15 K, m1 = 0.1	0.0305	786.41	1.069
303.15 K, m1 = 0.1985	0.0483	791.76	1.2
303.15 K, m1 = 0.3005	0.0627	797.4	1.209
303.15 K, m1 = 0.4001	0.0745	802.85	1.289
303.15 K, m1 = 0.5007	0.0858	808.5	1.392
303.15 K, m1 = 0.5998	0.0954	813.99	1.495
303.15 K, m1 = 0.7002	0.1036	819.7	1.613
303.15 K, m1 = 0.8	0.1125	825.43	1.766
303.15 K, m1 = 0.8957	0.119	831.17	1.89
303.15 K, m1 = 1	0.127	837.09	2.054
303.15 K, m1 = 1.198	0.139	848.73	2.427
303.15 K, m1 = 1.401	0.149	861.28	2.935
303.15 K, m1 = 1.602	0.155	873.24	3.606
303.15 K, m1 = 1.8	0.16	885.6	4.489
303.15 K, m1 = 2.001	0.1614	898.93	5.886
303.15 K, m1 = 2.198	0.159	910.89	7.117
303.15 K, m1 = 2.397	0.155	924.07	9.203
303.15 K, m1 = 2.597	0.147	937.29	13.25
303.15 K, m1 = 2.796	0.14	950.5	17.19
303.15 K, m1 = 3.006	0.1307	964.74	24.65
308.15 K, m1 = 0.05	0.0194	–	0.934
308.15 K, m1 = 0.1	0.0313	–	0.976
308.15 K, m1 = 0.1985	0.0499	–	1.028
308.15 K, m1 = 0.3005	0.0652	–	1.1
308.15 K, m1 = 0.4001	0.0776	–	1.171
308.15 K, m1 = 0.5007	0.0899	–	1.261
308.15 K, m1 = 0.5998	0.1004	–	1.352
308.15 K, m1 = 0.7002	0.109	–	1.456
308.15 K, m1 = 0.8	0.119	–	1.59
308.15 K, m1 = 0.8957	0.126	–	1.698
308.15 K, m1 = 1	0.135	–	–
308.15 K, m1 = 1.198	0.148	–	–
308.15 K, m1 = 1.401	0.1609	–	–
308.15 K, m1 = 1.602	0.169	–	–
308.15 K, m1 = 1.8	0.1747	–	–
308.15 K, m1 = 2.001	0.178	–	–
308.15 K, m1 = 2.198	0.177	–	–
308.15 K, m1 = 2.397	0.173	–	–
308.15 K, m1 = 2.597	0.165	–	–
308.15 K, m1 = 2.796	0.158	–	–
308.15 K, m1 = 3.006	0.148	–	–
